Assays:
Type in all cases: cell-based
hA3AR = molecular target: T1, hA3AR (Homo sapiens, UniProt P0DMS8); test: Cyclic AMP functional assay at the hA3AR expressed in CHO cells
T1 sequence (P0DMS8 1-318): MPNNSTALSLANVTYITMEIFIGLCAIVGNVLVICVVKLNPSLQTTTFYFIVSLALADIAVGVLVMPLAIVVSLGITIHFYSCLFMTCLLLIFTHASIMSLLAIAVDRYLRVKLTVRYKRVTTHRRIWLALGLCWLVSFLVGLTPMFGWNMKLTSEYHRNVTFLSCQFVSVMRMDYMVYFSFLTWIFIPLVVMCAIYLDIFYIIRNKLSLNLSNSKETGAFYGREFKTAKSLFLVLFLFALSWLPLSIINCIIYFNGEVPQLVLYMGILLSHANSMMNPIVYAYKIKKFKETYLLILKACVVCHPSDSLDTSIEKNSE

hA2AAR = hA2AAR (Homo sapiens, UniProt P29274); test: Cyclic AMP functional assay at the hA2AAR expressed in CHO cells; conditions: compared to the standard CGS21680
hA2BAR = molecular target: T2, hA2BAR (Homo sapiens, UniProt P29275); test: Cyclic AMP accumulation at the hA2BAR expressed in CHO cells
T2 sequence (P29275 1-332): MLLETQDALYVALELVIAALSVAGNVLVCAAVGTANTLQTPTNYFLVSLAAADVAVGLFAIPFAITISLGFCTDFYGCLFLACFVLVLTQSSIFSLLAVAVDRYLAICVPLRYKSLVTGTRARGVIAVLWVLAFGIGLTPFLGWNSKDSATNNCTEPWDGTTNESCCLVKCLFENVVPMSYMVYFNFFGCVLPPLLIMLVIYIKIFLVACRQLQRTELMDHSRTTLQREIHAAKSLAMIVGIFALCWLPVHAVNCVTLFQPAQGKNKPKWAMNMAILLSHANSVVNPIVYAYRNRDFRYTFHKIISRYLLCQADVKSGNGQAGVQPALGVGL

Sequence of hA2AAR (P29274 whole entry): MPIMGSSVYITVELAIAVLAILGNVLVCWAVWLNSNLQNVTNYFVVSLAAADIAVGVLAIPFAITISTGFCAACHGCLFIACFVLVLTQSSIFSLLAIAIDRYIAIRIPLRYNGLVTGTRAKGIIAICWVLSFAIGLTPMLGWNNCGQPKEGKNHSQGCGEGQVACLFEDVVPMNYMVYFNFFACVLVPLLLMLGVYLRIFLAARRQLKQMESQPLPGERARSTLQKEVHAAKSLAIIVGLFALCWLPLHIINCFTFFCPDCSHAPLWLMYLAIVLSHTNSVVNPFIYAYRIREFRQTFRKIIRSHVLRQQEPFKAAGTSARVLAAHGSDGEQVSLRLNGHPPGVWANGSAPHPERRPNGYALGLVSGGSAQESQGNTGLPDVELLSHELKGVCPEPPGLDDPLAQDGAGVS

Compound	Functional behaviour at the hA3AR (cyclic AMP assay) (hA3AR)	Functional behaviour at the hA2AAR (cyclic AMP assay) (hA2AAR)	Functional behaviour at the hA2BAR (cyclic AMP accumulation) (hA2BAR)
CCCCC#Cc1nc(N)c2ncn([C@@H]3SC[C@@H](O)[C@H]3O)c2n1 [Compound 4a]	potent and full antagonists	full agonist	weak partial agonist
CCCC/C=C/c1nc(N)c2ncn([C@@H]3SC[C@@H](O)[C@H]3O)c2n1 [Compound 4b]	potent and full antagonists		

— PMC3030271 (ACS medicinal chemistry letters, 2010)
